# Data: ChEMBL document CHEMBL1153031, “Evaluation of anti-inflammatory effect of synthetic 1,5-bis(4-acetoxy-3-methoxyphenyl)-1,4-pentadien-3-one, HB2” (Bioorg Med Chem, 2009)
# Activity calls are given as the source filed them. The rule behind the calls is not given here.
# What was measured:
# [1] = tested on: Mus musculus; test: Antiinflammatory activity against carrageenan-induced paw oedema in mouse at 1 mg/kg, ip treated 30 mins before carrageenan challenge measured after 4 hrs by plethysmometry analysis; type: functional; details: route intraperitoneal
# [2] = tested on: Mus musculus; test: Antiinflammatory activity against carrageenan-induced paw oedema in mouse at 1 mg/kg, ip treated 30 mins before carrageenan challenge measured after 1 hr by plethysmometry analysis; type: functional; details: route intraperitoneal
# [3] = tested on: Mus musculus; test: Antiinflammatory activity against bradykinin-induced paw oedema in mouse at 1 mg/kg, ip treated 30 mins before bradykinin challenge measured after 30 mins by plethysmometry analysis; type: functional; details: route intraperitoneal
# [4] = tested on: Mus musculus; test: Antiinflammatory activity against bradykinin-induced paw oedema in mouse at 1 mg/kg, ip treated 30 mins before bradykinin challenge measured after 15 mins by plethysmometry analysis; type: functional; details: route intraperitoneal
# [5] = tested on: Mus musculus; test: Antiinflammatory activity against carrageenan-induced paw oedema in mouse at 1 mg/kg, ip treated 30 mins before carrageenan challenge measured after 6 hrs by plethysmometry analysis; type: functional; details: route intraperitoneal
# [6] = tested on: Mus musculus; test: Antiinflammatory activity against bradykinin-induced paw oedema in mouse at 1 mg/kg, ip treated 30 mins before bradykinin challenge measured after 120 mins by plethysmometry analysis; type: functional; details: route intraperitoneal
# [7] = tested on: Mus musculus; test: Antiinflammatory activity against carrageenan-induced paw oedema in mouse at 1 mg/kg, ip treated 30 mins before carrageenan challenge measured after 2 hrs by plethysmometry analysis; type: functional; details: route intraperitoneal
# [8] = tested on: Mus musculus; test: Antiinflammatory activity against bradykinin-induced paw oedema in mouse at 1 mg/kg, ip treated 30 mins before bradykinin challenge measured after 60 mins by plethysmometry analysis; type: functional; details: route intraperitoneal
# [9] = tested on: Mus musculus; test: Antiinflammatory activity against bradykinin-induced paw oedema in mouse at 1 mg/kg, ip treated 30 mins before bradykinin challenge measured after 240 mins by plethysmometry analysis; type: functional; details: route intraperitoneal
# [10] = tested on: Mus musculus; test: Antiinflammatory activity against carrageenan-induced paw oedema in mouse at 1 mg/kg, ip treated 30 mins before carrageenan challenge measured after 5 hrs by plethysmometry analysis; type: functional; details: route intraperitoneal
# [11] = tested on: Mus musculus; test: Antiinflammatory activity against bradykinin-induced paw oedema in mouse at 10 mg/kg, ip treated 30 mins before bradykinin challenge measured after 60 mins by plethysmometry analysis; type: functional; details: route intraperitoneal
# [12] = tested on: Mus musculus; test: Antiinflammatory activity in mouse peritoneal cavity assessed as reduction in cell migration during carrageenan-induced inflammation at 1 mg/kg, ip administered 30 mins before carrageenan challenge measured after 4 hrs; type: functional, organism-based; design: dose 1 mg/kg
# [13] = tested on: Mus musculus; test: Antiinflammatory activity against carrageenan-induced paw oedema in mouse at 10 mg/kg, ip treated 30 mins before carrageenan challenge measured after 4 hrs by plethysmometry analysis; type: functional; details: route intraperitoneal
# [14] = tested on: Mus musculus; test: Antiinflammatory activity against carrageenan-induced paw oedema in mouse at 10 mg/kg, ip treated 30 mins before carrageenan challenge measured after 5 hrs by plethysmometry analysis; type: functional; details: route intraperitoneal
# [15] = tested on: Mus musculus; test: Antiinflammatory activity in mouse assessed as reduction in total cell count in peritoneal exudate during carrageenan-induced inflammation at 10 mg/kg, ip administered 30 mins before carrageenan challenge measured after 4 hrs; type: functional; design: scale not given: the % may be the effect or the level left; details: route intraperitoneal
# [16] = tested on: Mus musculus; test: Antiinflammatory activity in mouse assessed as reduction in total cell count in peritoneal exudate during carrageenan-induced inflammation at 0.5 mg/kg, sc administered 4 hrs before carrageenan challenge measured after 4 hrs; type: functional; design: scale not given: the % may be the effect or the level left; details: route subcutaneous
# [17] = Cytotoxicity against mouse RAW264.7 cells assessed as cell viability at 3 uM after 24 hrs by MTT assay; type: cell-based; details: read-out: Activity
# [18] = tested on: Mus musculus; test: Antiinflammatory activity against bradykinin-induced paw oedema in mouse at 10 mg/kg, ip treated 30 mins before bradykinin challenge measured after 240 mins by plethysmometry analysis; type: functional; details: route intraperitoneal
# [19] = tested on: Mus musculus; test: Antiinflammatory activity against bradykinin-induced paw oedema in mouse at 10 mg/kg, ip treated 30 mins before bradykinin challenge measured after 30 mins by plethysmometry analysis; type: functional; details: route intraperitoneal
# [20] = tested on: Mus musculus; test: Antiinflammatory activity in mouse assessed as neutrophil population in peritoneal exudate during carrageenan-induced inflammation at 0.5 mg/kg, sc administered 4 hrs before carrageenan challenge measured after 4 hrs by myeloperoxidase activity assay; type: functional; details: route subcutaneous
# [21] = tested on: RAW264.7; test: Antiinflammatory activity in mouse RAW264.7 cells assessed as inhibition of LPS-induced PGE2 production at 100 uM after 24 hrs by enzyme immunoassay; type: functional; details: RAW264.7, 24 h
# [22] = tested on: Mus musculus; test: Antiinflammatory activity in ip dosed mouse assessed as inhibition of acetic acid-induced abdominal constriction administered 30 mins before acetic acid challenge; type: functional, Abdomen
# [23] = tested on: RAW264.7; test: Antiinflammatory activity in mouse RAW264.7 cells assessed as inhibition of LPS-induced PGE2 production at 3 uM after 24 hrs by enzyme immunoassay; type: functional; details: RAW264.7, 24 h
# [24] = tested on: Mus musculus; test: Antiinflammatory activity in mouse assessed as neutrophil population in peritoneal exudate during carrageenan-induced inflammation at 0.1 mg/kg, ip administered 30 mins before carrageenan challenge measured after 4 hrs by myeloperoxidase activity assay; type: functional; details: route intraperitoneal
# [25] = tested on: Mus musculus; test: Antiinflammatory activity against carrageenan-induced paw oedema in mouse at 10 mg/kg, ip treated 30 mins before carrageenan challenge measured after 2 hrs by plethysmometry analysis; type: functional; details: route intraperitoneal
# [26] = tested on: Mus musculus; test: Antiinflammatory activity in mouse assessed as neutrophil population in peritoneal exudate during carrageenan-induced inflammation at 1 mg/kg, ip administered 30 mins before carrageenan challenge measured after 4 hrs by myeloperoxidase activity assay; type: functional; details: route intraperitoneal
# [27] = Cytotoxicity against mouse RAW264.7 cells assessed as cell viability at 10 uM after 24 hrs by MTT assay; type: cell-based; details: read-out: Activity
# [28] = tested on: RAW264.7; test: Antiinflammatory activity in mouse RAW264.7 cells assessed as inhibition of LPS-induced PGE2 production at 10 uM after 24 hrs by enzyme immunoassay; type: functional; details: RAW264.7, 24 h
# [29] = tested on: Mus musculus; test: Antiinflammatory activity against bradykinin-induced paw oedema in mouse at 10 mg/kg, ip treated 30 mins before bradykinin challenge measured after 15 mins by plethysmometry analysis; type: functional; details: route intraperitoneal
# [30] = tested on: Mus musculus; test: Neurotoxicity in mouse assessed as muscular impairment at 10 mg/kg, ip administered 15 mins before test measured after 60 seconds by rotarod test; type: toxicity, organism-based; design: dose 10 mg/kg, route intraperitoneal; details: in vivo, 0.25 h
# [31] = tested on: RAW264.7; test: Reduction in LPS-induced nitric oxide production in mouse RAW264.7 cells at 1 uM after 24 hrs by Griess assay (Rvb=74.2 +/- 1.6 uM); type: functional
# [32] = tested on: RAW264.7; test: Reduction in LPS-induced nitric oxide production in mouse RAW264.7 cells at 3 uM after 24 hrs by Griess assay (Rvb=74.2 +/- 1.6 uM); type: functional
# [33] = tested on: RAW264.7; test: Reduction in LPS-induced nitric oxide production in mouse RAW264.7 cells at 10 uM after 24 hrs by Griess assay (Rvb=74.2 +/- 1.6 uM); type: functional
# [34] = tested on: Mus musculus; test: Antiinflammatory activity in mouse assessed as neutrophil population in peritoneal exudate during carrageenan-induced inflammation at 10 mg/kg, ip administered 30 mins before carrageenan challenge measured after 4 hrs by myeloperoxidase activity assay; type: functional; details: route intraperitoneal
# [35] = tested on: Mus musculus; test: Antiinflammatory activity in mouse peritoneal cavity assessed as reduction in cell migration during carrageenan-induced inflammation at 0.1 mg/kg, ip administered 30 mins before carrageenan challenge measured after 4 hrs; type: functional, organism-based; design: dose 0.1 mg/kg
# [36] = tested on: Mus musculus; test: Antiinflammatory activity against carrageenan-induced paw oedema in mouse at 10 mg/kg, ip treated 30 mins before carrageenan challenge measured after 6 hrs by plethysmometry analysis; type: functional; details: route intraperitoneal
# [37] = tested on: Mus musculus; test: Antiinflammatory activity against carrageenan-induced paw oedema in mouse at 10 mg/kg, ip treated 30 mins before carrageenan challenge measured after 1 hr by plethysmometry analysis; type: functional; details: route intraperitoneal
# [38] = Cytotoxicity against mouse RAW264.7 cells assessed as cell viability at 1 uM after 24 hrs by MTT assay; type: cell-based; details: read-out: Activity
# [39] = tested on: Mus musculus; test: Antinociceptive activity against formalin-induced nociception in ip dosed mouse assessed as inhibition of paw licking time administered 30 mins before formalin challenge measured after 30 mins; type: functional, organism-based
# [40] = tested on: Mus musculus; test: Antiinflammatory activity against bradykinin-induced paw oedema in mouse at 10 mg/kg, ip treated 30 mins before bradykinin challenge measured after 120 mins by plethysmometry analysis; type: functional; details: route intraperitoneal
# [41] = tested on: Mus musculus; test: Antinociceptive activity against formalin-induced nociception in mouse assessed as inhibition of paw licking time at 10 mg/kg, ip administered 30 mins before formalin challenge measured after 30 mins relative to control; type: functional; details: route intraperitoneal
# [42] = tested on: Mus musculus; test: Neurotoxicity in mouse assessed as depression activity at 1 mg/kg, ip administered 15 mins before test measured after 60 seconds by rotarod test; type: toxicity, organism-based; design: dose 1 mg/kg, route intraperitoneal; details: in vivo, 0.25 h
# [43] = tested on: Mus musculus; test: Neurotoxicity in mouse assessed as muscular impairment at 1 mg/kg, ip administered 15 mins before test measured after 60 seconds by rotarod test; type: toxicity, organism-based; design: dose 1 mg/kg, route intraperitoneal; details: in vivo, 0.25 h
# [44] = tested on: Mus musculus; test: Neurotoxicity in mouse assessed as depression activity at 10 mg/kg, ip treated 15 mins before test measured after 60 seconds by rotarod test; type: toxicity, organism-based; design: dose 10 mg/kg, route intraperitoneal; details: in vivo, 0.25 h
compound,measurement,setting,value
COc1ccc2c(c1)c(CC(=O)O)c(C)n2C(=O)c1ccc(Cl)cc1 [INDOMETHACIN],inhibition in vivo at 1 mg/kg,[1],7.14%
same,inhibition in vivo at 1 mg/kg,[2],12.6%
same,inhibition in vivo at 1 mg/kg,[3],3.5%
same,inhibition in vivo at 1 mg/kg,[4],5%
same,inhibition in vivo at 1 mg/kg,[5],5.66%
same,inhibition in vivo at 1 mg/kg,[6],2.09%
same,inhibition in vivo at 1 mg/kg,[7],10.8%
same,inhibition in vivo at 1 mg/kg,[8],2.5%
same,inhibition in vivo at 1 mg/kg,[9],1.9%
same,inhibition in vivo at 1 mg/kg,[10],6.28%
COc1cc(/C=C/C(=O)/C=C/c2ccc(OC(C)=O)c(OC)c2)ccc1OC(C)=O,inhibition in vivo at 10 mg/kg,[11],2.8%
same,Activity,[12],inactive
same,inhibition in vivo at 10 mg/kg,[13],8.67%
same,inhibition in vivo at 10 mg/kg,[14],8.57%
same,Activity,[15],50%
same,Activity,[16],20%
same,"viability at 24 h, 3 µM",[17],> 90%
same,inhibition in vivo at 10 mg/kg,[18],2.18%
same,inhibition in vivo at 10 mg/kg,[19],3%
same,Activity,[20],98%
same,inhibition at 100 µM,[21],76%
same,inhibition (INH),[22],82.5%
same,ED50,"[22]; Mus musculus, Abdomen, ip",7.6 mg/kg
same,inhibition at 3 µM,[23],48%
same,Activity,[24],98%
same,inhibition in vivo at 10 mg/kg,[25],12.1%
same,Activity,[26],98%
same,"viability at 24 h, 10 µM",[27],> 90%
same,inhibition at 10 µM,[28],71%
same,inhibition in vivo at 10 mg/kg,[29],4.25%
same,Activity,[30],Non-toxic
same,Activity,[31],49 µM
same,Activity,[32],20 µM
same,Activity,[33],3 µM
same,Activity,[34],98%
same,Activity,[35],inactive
same,inhibition in vivo at 10 mg/kg,[36],6.57%
same,inhibition in vivo at 10 mg/kg,[37],10.8%
same,"viability at 24 h, 1 µM",[38],> 90%
same,EC50,[39],5.8 mg/kg
same,inhibition in vivo at 10 mg/kg,[40],2.5%
same,inhibition in vivo at 10 mg/kg,[41],86%
same,Activity,[42],Non-toxic
same,Activity,[43],Non-toxic
same,Activity,[44],Non-toxic
COc1cc(/C=C/C(=O)/C=C/c2ccc(O)c(OC)c2)ccc1O,inhibition in vivo at 1 mg/kg,[1],17.4%
same,inhibition in vivo at 1 mg/kg,[2],14.6%
same,inhibition in vivo at 1 mg/kg,[3],4%
same,inhibition in vivo at 1 mg/kg,[4],5.04%
same,inhibition in vivo at 1 mg/kg,[5],10.1%
same,inhibition in vivo at 1 mg/kg,[6],2.5%
same,inhibition in vivo at 1 mg/kg,[7],22.9%
same,inhibition in vivo at 1 mg/kg,[8],3.25%
same,inhibition in vivo at 1 mg/kg,[9],2.2%
same,inhibition in vivo at 1 mg/kg,[10],15.1%
